Experiment [1] has as its target human TASK-3 (Homo sapiens (Human), UniProt Q9NPC2). The experiment is described as follows: Inhibition of recombinant TASK-3 in stably transfected CHO cells (voltage-sensitive dye, KCl depolarization). Format: cell-based. The settings on record: depolarization by 40 mM potassium chloride. On the procedure:
(§1) B-2. Inhibition of Recombinant TASK-1 and TASK-3 In Vitro
(§2) The investigations on the inhibition of the recombinant TASK-1 and TASK-3 channels were conducted using stably transfected CHO cells. The compounds according to the invention were tested in this case by application of 40 mM potassium chloride in the presence of a voltage-sensitive dye according to the method described in detail in the following references [Whiteaker et al., Validation of FLIPR membrane potential dye for high-throughput screening of potassium channel modulators, J. Biomol. Screen. 6 (5), 305-312 (2001); Molecular Devices FLIPR Application Note: Measuring membrane potential using the FLIPR® membrane potential assay kit on Fluorometric Imaging Plate Reader (FLIPR®) systems, http://www.moleculardevices.com/reagents-supplies/assay-kits/ion-channels/flipr-membrane-potential-assay-kits]. The activity of the test substances was determined as their ability to inhibit a depolarization induced in the recombinant cells by 40 mM potassium chloride. The concentration which can block half of this depolarization is referred to as IC50.

The target of experiment [2] is human TASK-1 (Homo sapiens (Human), UniProt O14649). The experiment is described as follows: Inhibition of recombinant TASK-1 in stably transfected CHO cells (voltage-sensitive dye, KCl depolarization). The settings on record: depolarization by 40 mM potassium chloride. Format: cell-based. On the procedure:
as §1, §2

Drawing on US11098063B2, “Diazabicyclic substituted imidazopyrimidines and their use for the treatment of breathing disorders” (Bayer Aktiengesellschaft, priority 2017, dated 2021), this text covers IC50 for ten compounds.

Sequence of human TASK-1 (O14649 whole entry): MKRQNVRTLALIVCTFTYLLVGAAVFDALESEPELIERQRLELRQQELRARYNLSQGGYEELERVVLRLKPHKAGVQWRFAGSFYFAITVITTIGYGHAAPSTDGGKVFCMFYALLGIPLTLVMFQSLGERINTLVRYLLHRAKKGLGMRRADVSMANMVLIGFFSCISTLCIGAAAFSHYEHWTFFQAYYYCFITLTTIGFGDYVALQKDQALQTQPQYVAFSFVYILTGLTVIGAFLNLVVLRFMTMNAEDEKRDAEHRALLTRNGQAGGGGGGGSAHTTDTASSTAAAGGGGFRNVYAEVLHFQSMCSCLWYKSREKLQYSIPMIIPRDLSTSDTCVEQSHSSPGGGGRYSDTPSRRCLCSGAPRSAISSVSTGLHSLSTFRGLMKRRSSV
Sequence of human TASK-3 (Q9NPC2 whole entry): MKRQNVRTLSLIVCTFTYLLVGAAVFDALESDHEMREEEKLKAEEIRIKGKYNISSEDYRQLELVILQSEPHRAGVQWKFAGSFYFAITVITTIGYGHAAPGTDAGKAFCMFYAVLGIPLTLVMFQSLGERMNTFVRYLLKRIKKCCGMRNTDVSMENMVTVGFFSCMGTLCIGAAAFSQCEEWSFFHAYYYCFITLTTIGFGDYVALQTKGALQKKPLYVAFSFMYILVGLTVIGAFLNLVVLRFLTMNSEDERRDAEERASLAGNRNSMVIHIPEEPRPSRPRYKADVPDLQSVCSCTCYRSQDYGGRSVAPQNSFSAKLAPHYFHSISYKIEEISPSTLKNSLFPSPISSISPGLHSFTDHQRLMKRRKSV

As to `CCc1ccccc1NC(=O)N1C2CCC1CN(Cc1c(-c3ccc(Cl)cc3)nc3ncccn13)C2` [Example 95, 3-{[2-(4-chlorophenyl)imidazo[1,2-a]pyrimidin-3-yl]methyl}-N-(2-ethylphenyl)-3,8-diazabicyclo[3.2.1]octane-8-carboxamide], the IC50 in experiment [1] is 0.041 µM; in experiment [2] it was 3 µM.
Regarding `O=C(Nc1cc(C(F)(F)F)ccc1Cl)N1C2CCC1CN(Cc1c(-c3ccc(Cl)cc3)nc3ncccn13)C2` [Example 97, 3-{[2-(4-chlorophenyl)imidazo[1,2-a]pyrimidin-3-yl]methyl}-N-[2-chloro-5-(trifluoromethyl)phenyl]-3,8-diazabicyclo[3.2.1]octane-8-carboxamide], the values for the IC50 in experiment [1] and in experiment [2] were 0.45 µM and 31 µM, respectively.
The matching figures for `CCc1cccc(C)c1NC(=O)N1C2CCC1CN(Cc1c(-c3ccc(Cl)cc3)nc3ncccn13)C2` [Example 98, 3-{[2-(4-chlorophenyl)imidazo[1,2-a]pyrimidin-3-yl]methyl}-N-(2-ethyl-6-methylphenyl)-3,8-diazabicyclo[3.2.1]octane-8-carboxamide]: 0.16 µM and 9 µM.
Take `Cc1ccc(C)c(NC(=O)N2C3CCC2CN(Cc2c(-c4ccc(Cl)cc4)nc4ncccn24)C3)c1` [Example 99, 3-{[2-(4-chlorophenyl)imidazo[1,2-a]pyrimidin-3-yl]methyl}-N-(2,5-dimethylphenyl)-3,8-diazabicyclo[3.2.1]octane-8-carboxamide]: the IC50 was 0.75 µM in experiment [1] and 30 µM in experiment [2].
The matching figures for `O=C(NC1CCCCC1)N1C2CCC1CN(Cc1c(-c3ccc(Cl)cc3)nc3ncccn13)C2` [Example 100, 3-{[2-(4-Chlorophenyl)imidazo[1,2-a]pyrimidin-3-yl]methyl}-N-cyclohexyl-3,8-diazabicyclo[3.2.1]octane-8-carboxamide]: 0.63 µM and 19 µM.
As to `CC(C)CNC(=O)N1C2CCC1CN(Cc1c(-c3ccc(Cl)cc3)nc3ncccn13)C2` [Example 101, 3-{[2-(4-Chlorophenyl)imidazo[1,2-a]pyrimidin-3-yl]methyl}-N-isobutyl-3,8-diazabicyclo[3.2.1]octane-8-carboxamide], the half-inhibitory concentration (IC50) in experiment [1] worked out at 0.51 µM; in experiment [2], 19 µM.
On to `O=C(Nc1ccc(SC(F)(F)F)cc1)N1C2CCC1CN(Cc1c(-c3ccc(Cl)cc3)nc3ncccn13)C2` [Example 103, 3-{[2-(4-chlorophenyl)imidazo[1,2-a]pyrimidin-3-yl]methyl}-N-{4-[(trifluoromethyl)sulfanyl]phenyl}-3,8-diazabicyclo[3.2.1]octane-8-carboxamide], for which the half-inhibitory concentration (IC50) worked out at 0.69 µM in experiment [1] and 30 µM in experiment [2].
As to `O=C(Nc1cccc(F)c1)N1C2CCC1CN(Cc1c(-c3ccc(Cl)cc3)nc3ncccn13)C2` [Example 104, 3-{[2-(4-chlorophenyl)imidazo[1,2-a]pyrimidin-3-yl]methyl}-N-(3-fluorophenyl)-3,8-diazabicyclo[3.2.1]octane-8-carboxamide], the IC50 came out at 0.46 µM in experiment [1] and 19 µM in experiment [2].
The matching figures for `O=C(Nc1ccc(Cl)cc1C(F)(F)F)N1C2CCC1CN(Cc1c(-c3ccc(Cl)cc3)nc3ncccn13)C2` [Example 106, 3-{[2-(4-chlorophenyl)imidazo[1,2-a]pyrimidin-3-yl]methyl}-N-[4-chloro-2-(trifluoromethyl)phenyl]-3,8-diazabicyclo[3.2.1]octane-8-carboxamide]: 0.089 µM and 30 µM.
The matching figures for `Cc1ccccc1CNC(=O)N1C2CCC1CN(Cc1c(-c3ccc(Cl)cc3)nc3ncccn13)C2` [Example 107, 3-{[2-(4-chlorophenyl)imidazo[1,2-a]pyrimidin-3-yl]methyl}-N-(2-methylbenzyl)-3,8-diazabicyclo[3.2.1]octane-8-carboxamide]: 0.75 µM and 30 µM.
